Laboratory results reported in US9656988B2 (Pharmacyclics LLC, priority 2013, dated 2017).
Like-named read-outs stand apart in the source and are kept apart here.

Target: BTK (Homo sapiens (Human), UniProt Q06187)
Assay: Btk in vitro inhibitory activity (one of Method A TR-FRET, Method B electrophoretic mobility shift, Method C radiometric filter binding)
Type: biochemical
[1] = determined using one of the methods of Example 355a, 355b and 355c, read-out: BTK IC50

Chain of BTK (Q06187 whole entry): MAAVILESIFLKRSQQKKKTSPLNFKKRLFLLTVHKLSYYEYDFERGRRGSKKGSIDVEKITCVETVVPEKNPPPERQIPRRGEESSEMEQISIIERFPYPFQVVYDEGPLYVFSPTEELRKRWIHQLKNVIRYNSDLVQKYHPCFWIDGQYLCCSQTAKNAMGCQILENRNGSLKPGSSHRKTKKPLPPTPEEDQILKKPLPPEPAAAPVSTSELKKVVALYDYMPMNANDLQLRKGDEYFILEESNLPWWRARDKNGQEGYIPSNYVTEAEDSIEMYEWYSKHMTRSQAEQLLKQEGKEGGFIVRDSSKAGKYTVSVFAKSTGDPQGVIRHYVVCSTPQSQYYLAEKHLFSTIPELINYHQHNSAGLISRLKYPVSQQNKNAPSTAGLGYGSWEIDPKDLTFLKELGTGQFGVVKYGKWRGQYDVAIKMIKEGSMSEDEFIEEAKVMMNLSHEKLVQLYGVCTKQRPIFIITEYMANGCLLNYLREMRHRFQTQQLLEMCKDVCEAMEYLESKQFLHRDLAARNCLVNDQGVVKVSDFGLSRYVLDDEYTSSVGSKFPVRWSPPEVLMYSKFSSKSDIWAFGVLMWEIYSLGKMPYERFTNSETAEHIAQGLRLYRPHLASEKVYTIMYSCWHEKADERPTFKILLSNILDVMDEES

Row | IC50 (read-out: Btk (IC50)) [µM] | Compound | IC50 [1] [µM] | IC50 [µM]
1 | 0.01 to 0.1 | NC(=O)c1nnc(N2CCC[C@@H](NC(=O)c3cc(C4CC4)on3)C2)nc1Nc1ccc(C(=O)N2CCOCC2)cc1 [Example 95, (R)—N-(1-(6-carbamoyl-5-(4-(morpholine-4-carbonyl)phenylamino)-1,2,4-triazin-3-yl)piperidin-3-yl)-5-cyclopropylisoxazole-3-carboxamide] | 0.01 to 0.1 | 
2 |  | NC(=O)c1nnc(N2CCC[C@@H](NC(=O)c3ccc(Oc4ccccc4)cc3)C2)nc1Nc1ccc(C(=O)N2CCOCC2)cc1 [Example 96, (R)-5-(4-(morpholine-4-carbonyl)phenylamino)-3-(3-(4-phenoxybenzamido)piperidin-1-yl)-1,2,4-triazine-6-carboxamide] | 0.01 to 0.1 | 
3 | 0.01 to 0.1 | NC(=O)c1nnc(N2CCC[C@@H](NC(=O)c3nc4ccccc4o3)C2)nc1Nc1ccc(C(=O)N2CCOCC2)cc1 [Example 97, (R)—N-(1-(6-carbamoyl-5-(4-(morpholine-4-carbonyl)phenylamino)-1,2,4-triazin-3-yl)piperidin-3-yl)benzo[d]oxazole-2-carboxamide] | 0.01 to 0.1 | 
4 | < 0.01 | NC(=O)c1nnc(N2CCC[C@@H](NC(=O)c3ccc4c(c3)nnn4C3CC3)C2)nc1Nc1ccc(C(=O)N2CCOCC2)cc1 [Example 102, (R)—N-(1-(6-carbamoyl-5-(4-(morpholine-4-carbonyl)phenylamino)-1,2,4-triazin-3-yl)piperidin-3-yl)-1-cyclopropyl-1H-benzo[d][1,2,3]triazole-5-carboxamide] | < 0.01 | 
5 |  | NC(=O)c1nnc(N2CCC[C@@H](N3Cc4ccccc4C3=O)C2)nc1Nc1ccc(C(=O)N2CCOCC2)cc1 [Example 104, (R)-5-(4-(morpholine-4-carbonyl)phenylamino)-3-(3-(1-oxoisoindolin-2-yl)piperidin-1-yl)-1,2,4-triazine-6-carboxamide] | 0.01 to 0.1 | 
6 |  | CC#CC(=O)N1CCC[C@@H](Nc2nnc(C(N)=O)c(Nc3ccc(S(C)(=O)=O)cc3)n2)C1 [Example 105, (R)-3-(1-but-2-ynoylpiperidin-3-ylamino)-5-(4-(methylsulfonyl)phenylamino)-1,2,4-triazine-6-carboxamide] | < 0.01 | 
7 |  | CN(C)C/C=C/C(=O)N1CCC[C@@H](Nc2nnc(C(N)=O)c(Nc3ccc(S(C)(=O)=O)cc3)n2)C1 [Example 106, (R,E)-3-(1-(4-(dimethylamino)but-2-enoyl)piperidin-3-ylamino)-5-(4-(methylsulfonyl)phenylamino)-1,2,4-triazine-6-carboxamide] | < 0.01 | 
8 |  | CN(C/C=C/C(=O)N1CCC[C@@H](Nc2nnc(C(N)=O)c(Nc3ccc(S(C)(=O)=O)cc3)n2)C1)C1CC1 [Example 107, (R,E)-3-(1-(4-(cyclopropyl(methyl)amino)but-2-enoyl)piperidin-3-ylamino)-5-(4-(methylsulfonyl)phenylamino)-1,2,4-triazine-6-carboxamide] | < 0.01 | 
9 |  | NC(=O)c1nnc(N2CCC[C@@H](NC(=O)N3CCCCC3)C2)nc1Nc1cnc2ccccc2c1 [Example 108, (R)-3-(3-(piperidine-1-carboxamido)piperidin-1-yl)-5-(quinolin-3-ylamino)-1,2,4-triazine-6-carboxamide] | 0.1 to 1 | 
10 |  | NC(=O)c1nnc(N2CCC[C@@H](NC(=O)N3CCCCC3)C2)nc1Nc1ccc2cccnc2c1 [Example 109, (R)-3-(3-(piperidine-1-carboxamido)piperidin-1-yl)-5-(quinolin-7-ylamino)-1,2,4-triazine-6-carboxamide] | 0.1 to 1 | 
11 | 0.01 to 0.1 | CCOc1ccc(Nc2nc(N3CCC[C@@H](NC(=O)c4ccc(OC)cc4)C3)cnc2C(N)=O)cc1 [Example 111, (R)-3-(4-ethoxyphenylamino)-5-(3-(4-methoxybenzamido)piperidin-1-yl)pyrazine-2-carboxamide] | 0.01 to 0.1 | 
12 | 0.01 to 0.1 | COCCOc1ccc(Nc2nc(N3CCC[C@@H](NC(=O)c4ccc(OC)cc4)C3)cnc2C(N)=O)cc1 [Example 112, (R)-5-(3-(4-methoxybenzamido)piperidin-1-yl)-3-(4-(2-methoxyethoxy)phenylamino)pyrazine-2-carboxamide] | 0.01 to 0.1 | 
13 |  | CCOCCOc1ccc(Nc2nc(N3CCC[C@@H](NC(=O)c4ccc(OC)cc4)C3)cnc2C(N)=O)cc1 [Example 113, (R)-3-(4-(2-ethoxyethoxy)phenylamino)-5-(3-(4-methoxybenzamido)piperidin-1-yl)pyrazine-2-carboxamide] | 0.01 to 0.1 | 
14 |  | COc1ccc(C(=O)N[C@@H]2CCCN(c3cnc(C(N)=O)c(Nc4ccc(OCCN(C)C)cc4)n3)C2)cc1 [Example 115, (R)-3-(4-(2-(dimethylamino)ethoxy)phenylamino)-5-(3-(4-methoxybenzamido)piperidin-1-yl)pyrazine-2-carboxamide] | < 0.01 | 
15 |  | COc1ccc(C(=O)N[C@@H]2CCCN(c3cnc(C(N)=O)c(Nc4ccc(OCC[N+](C)(C)[O-])cc4)n3)C2)cc1 [Example 116, (R)-2-(4-(3-carbamoyl-6-(3-(4-methoxybenzamido)piperidin-1-yl)pyrazin-2-ylamino)phenoxy)-N,N-dimethylethanamine oxide] | 0.01 to 0.1 | 
16 |  | COc1ccc(C(=O)N[C@@H]2CCCN(c3cnc(C(N)=O)c(Nc4ccc(S(C)(=O)=O)cc4)n3)C2)cc1 [Example 117, (R)-5-(3-(4-methoxybenzamido)piperidin-1-yl)-3-(4-(methylsulfonyl)phenylamino)pyrazine-2-carboxamide] | < 0.01 | 
17 | 0.01 to 0.1 | COc1ccc(C(=O)N[C@@H]2CCCN(c3cnc(C(N)=O)c(Nc4ccc(C(=O)N(C)C)cc4)n3)C2)cc1 [Example 118, (R)-3-(4-(dimethylcarbamoyl)phenylamino)-5-(3-(4-methoxybenzamido)piperidin-1-yl)pyrazine-2-carboxamide] | 0.01 to 0.1 | 
18 |  | COc1ccc(C(=O)N[C@@H]2CCCN(c3cnc(C(N)=O)c(Nc4cc(C)ns4)n3)C2)cc1 [Example 119, (R)-5-(3-(4-methoxybenzamido)piperidin-1-yl)-3-(3-methylisothiazol-5-ylamino)pyrazine-2-carboxamide] | 0.01 to 0.1 | 
19 | 0.01 to 0.1 | COc1ccc(C(=O)N[C@@H]2CCCN(c3cnc(C(N)=O)c(Nc4ccc5ncccc5c4)n3)C2)cc1 [Example 120, (R)-5-(3-(4-methoxybenzamido)piperidin-1-yl)-3-(quinolin-6-ylamino)pyrazine-2-carboxamide] | 0.01 to 0.1 | 
20 | 0.01 to 0.1 | COc1ccc(C(=O)N[C@@H]2CCCN(c3cnc(C(N)=O)c(Nc4ccc5ncsc5c4)n3)C2)cc1 [Example 121, (R)-3-(benzo[d]thiazol-6-ylamino)-5-(3-(4-methoxybenzamido)piperidin-1-yl)pyrazine-2-carboxamide] | 0.01 to 0.1 | 
21 |  | COc1ccc(C(=O)N[C@@H]2CCCN(c3cnc(C(N)=O)c(Nc4ccc(C5CCOCC5)cc4)n3)C2)cc1 [Example 122, (R)-5-(3-(4-methoxybenzamido)piperidin-1-yl)-3-(4-(tetrahydro-2H-pyran-4-yl)phenylamino)pyrazine-2-carboxamide] | < 0.01 | 
22 |  | COc1ccc(C(=O)N[C@@H]2CCCN(c3cnc(C(N)=O)c(Nc4ccc(N5CCOCC5)cc4)n3)C2)cc1 [Example 123, (R)-5-(3-(4-methoxybenzamido)piperidin-1-yl)-3-(4-morpholinophenylamino)pyrazine-2-carboxamide] | < 0.01 | 
23 |  | COc1ccc(C(=O)N[C@@H]2CCCN(c3cnc(C(N)=O)c(Nc4ccc(N5CCOCC5)nc4)n3)C2)cc1 [Example 124, (R)-5-(3-(4-methoxybenzamido)piperidin-1-yl)-3-(6-morpholinopyridin-3-ylamino)pyrazine-2-carboxamide] | < 0.01 | 0.01 to 0.1
24 |  | COc1ccc(C(=O)N[C@@H]2CCCN(c3cnc(C(N)=O)c(Nc4ccc(N5CCOCC5)c(F)c4)n3)C2)cc1 [Example 125, (R)-3-(3-fluoro-4-morpholinophenylamino)-5-(3-(4-methoxybenzamido)piperidin-1-yl)pyrazine-2-carboxamide] | < 0.01 | 
25 |  | COc1ccc(C(=O)N[C@@H]2CCCN(c3cnc(C(N)=O)c(Nc4ccc(N5CCOCC5=O)cc4)n3)C2)cc1 [Example 126, (R)-5-(3-(4-methoxybenzamido)piperidin-1-yl)-3-(4-(3-oxomorpholino)phenylamino)pyrazine-2-carboxamide] | < 0.01 | 0.01 to 0.1
26 | 0.01 to 0.1 | COc1ccc(C(=O)N[C@@H]2CCCN(c3cnc(C(N)=O)c(Nc4ccc(-n5ccccc5=O)cc4)n3)C2)cc1 [Example 127, (R)-5-(3-(4-methoxybenzamido)piperidin-1-yl)-3-(4-(2-oxopyridin-1(2H)-yl)phenylamino)pyrazine-2-carboxamide] | 0.01 to 0.1 | 

Row | Compound | IC50 (read-out: Btk (IC50)) [µM] | IC50 [1] [µM] | IC50 [µM]
27 | Cc1ncc(C(=O)N[C@@H]2CCCN(c3nnc(C(N)=O)c(Nc4ccc(C(=O)N5CCOCC5)cc4)n3)C2)s1 [Example 93, (R)—N-(1-(6-carbamoyl-5-(4-(morpholine-4-carbonyl)phenylamino)-1,2,4-triazin-3-yl)piperidin-3-yl)-2-methylthiazole-5-carboxamide] | < 0.01 |  | 
28 | NC(=O)c1nnc(N2CCC[C@@H](NC(=O)c3nc4ccccc4s3)C2)nc1Nc1ccc(C(=O)N2CCOCC2)cc1 [Example 94, (R)—N-(1-(6-carbamoyl-5-(4-(morpholine-4-carbonyl)phenylamino)-1,2,4-triazin-3-yl)piperidin-3-yl)benzo[d]thiazole-2-carboxamide] | < 0.01 |  | 
29 | CCN(CC)C(=O)N[C@@H]1CCCN(c2nnc(C(N)=O)c(Nc3ccc(C(=O)N4CCOCC4)cc3)n2)C1 [Example 99, (R)-3-(3-(3,3-diethylureido)piperidin-1-yl)-5-(4-(morpholine-4-carbonyl)phenylamino)-1,2,4-triazine-6-carboxamide] | < 0.01 |  | 
30 | CCCn1nnc2cc(C(=O)N[C@@H]3CCCN(c4nnc(C(N)=O)c(Nc5ccc(C(=O)N6CCOCC6)cc5)n4)C3)ccc21 [Example 103, (R)—N-(1-(6-carbamoyl-5-(4-(morpholine-4-carbonyl)phenylamino)-1,2,4-triazin-3-yl)piperidin-3-yl)-1-propyl-1H-benzo[d][1,2,3]triazole-5-carboxamide] | 0.01 to 0.1 | < 0.01 | 
